Entries after “also recorded” stand apart in the source; their conditions may differ. Where two headings read alike, the source gives them in different places.
Key:
[1] = tested on: SOX17 (endoderm marker) in RUES2-GLR cells; assay: DevTox GLR-Endo assay: decrease in percent SOX17-positive cells (AEID 3094, Sox17_dn); conditions: for Hit Call: Table S2, SOX17-positive cells, cutoff 3*bmad; for DevTox % Max Inhibition: Table S2, percent SOX17-positive cells relative to DMSO; for DevTox ACC: Table S2, percent SOX17-positive cells, 48 h exposure; for HIT−CALL: tcpl plot AEID3094, COFF 20.3; for MAX_MEAN: tcpl plot AEID3094, maximum mean response; for MAX_MED: tcpl plot AEID3094, maximum median response; for Emax: Homo sapiens
In short: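 RUES2-GLR cells under endoderm differentiation exposed to test chemicals for 48 h in total, with 0.2% DMSO solvent control and SB431542 (1 µM) as developmental-toxicant control. Endpoints: decrease in total cell count and in percent SOX17-positive cells; n = 4 biological replicates minimum.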

RUES2-GLR cells = assay: DevTox GLR-Endo assay: decrease in total cell count, cytotoxicity (AEID 3098, CellCount_dn); conditions: for Cell Count % Max Inhibition: Table S2, cell count relative to DMSO
[2] = tested on: SOX17 (endoderm marker) in RUES2-GLR cells; assay: DevTox GLR-Endo assay: increase in percent SOX17-positive cells (AEID 3093, Sox17_up); assay type: cell-based, human; conditions: for HIT−CALL: tcpl plot AEID3093, COFF 20.3; for Emax: Homo sapiens
Method: (§1) The total test chemical incubation period was 48 h.
(§2) (Supplementary Materials).

[3] = tested on: BRA (mesoderm marker) in RUES2-GLR cells; assay: DevTox GLR-Endo assay: increase in percent BRA-positive cells (AEID 3096, Bra_up); assay type: cell-based, human; conditions: for HIT−CALL: tcpl plot AEID3096, COFF 0.774; for MAX_MEAN: tcpl plot AEID3096, maximum mean response; for MAX_MED: tcpl plot AEID3096, maximum median response
Method: as §1, §2

[4] = tested on: o/c ratio in H9 embryonic stem cells; conditions: Teratogen Index, cited from earlier work; for quickPredict TI: o/c ratio
H9 embryonic stem cells = conditions: cited from earlier work
[5] = cited from earlier work; for Development Toxicant Classification: Table S2; for Classification: developmental toxicant classification (Teratogen / Non-Teratogen) of reference and training chemicals, ref DOI per chemical: 10.1093/toxsci/kft239, 10.1093/toxsci/kfaa014, 10.1177/026119290203000204, 10.1038/s41598-020-59542-x; for DT Class.: developmental toxicant classification, chemicals common with quickPredict
[6] = tested on: SOX2 (ectoderm and pluripotency marker) in RUES2-GLR cells; assay: DevTox GLR-Endo assay: increase in percent SOX2-positive cells (AEID 3095, Sox2_up); conditions: for MAX_MEAN: tcpl plot AEID3095, maximum mean response; for MAX_MED: tcpl plot AEID3095, maximum median response
[7] = tcpl plot AEID3093, maximum mean response
[8] = tcpl plot AEID3093, maximum median response
[9] = concentration at cell viability cutoff

Compound | Hit Call [1] | DevTox % Max Inhibition [1] [%] | DevTox ACC [1] [µM] | HIT−CALL [1] | MAX_MEAN [1] [Percent Activity] | MAX_MED [1] [Percent Activity] | Cell Count ACC (RUES2-GLR cells; Table S2, 48 h exposure) [µM] | Cell Count % Max Inhibition (RUES2-GLR cells) [%] | HIT−CALL [2] | MAX_MEAN [2, 7] [Percent Activity] | MAX_MED [2, 8] [Percent Activity] | HIT−CALL [3] | MAX_MEAN [3] [Percent Activity] | MAX_MED [3] [Percent Activity] | quickPredict TI [4] [µM] | quickPredict CV (H9 embryonic stem cells; [9]) [µM] | Classification [5] | DT Class. [5] | MAX_MEAN [6] [Percent Activity] | MAX_MED [6] [Percent Activity] | further results
NC(=O)NO [Hydroxyurea] | Negative | 15.8672 | >200 | 0 | 17.2 | 15.9 | 64.5432 | 34.555 | 0 | 13.7 | 16 | 0 | 0.733 | 0.69 | 74.9 | 237 | Teratogen | Pos | 1.5 | 0.557 | hit call designation (in words) ([1]; DevTox GLR-Endo prediction against developmental toxicant classification): false negative; maximum observed effect level class (% max inhibition) ([1]; stratification of training set chemicals): weak (weak (0–20% max inhibition)); DevTox-GLR Endo CC (RUES2-GLR cells; concentration at cell count cutoff, 48 h exposure): 64.54 µM; effect on cell count (in words) (RUES2-GLR cells; training set, 48 h exposure): significant cell loss that did not impact SOX17-positive populations; also recorded: significant decreases in cell count; Development Toxicant Classification [5]: Positive
O=C(O)c1ccccc1O [Salicylic Acid] | Negative | – | >200 | 0 | – | – | – | – | 0 | – | – | 0 | 0.835 | 0.894 | 513 | 1795 | Non-Teratogen | Neg | 0.533 | 0.494 | Emax ([1]; read-out: DevTox % Max Inhibition): 6.91%; Emax ([1]; read-out: MAX_MEAN): 7.1%; Emax ([1]; read-out: MAX_MED): 6.91%; Emax (RUES2-GLR cells; Homo sapiens, read-out: Cell Count % Max Inhibition): 11.5%; Cell Count ACC (RUES2-GLR cells; human, 48 h): >200 µM; Emax ([2]; tcpl plot AEID3093, maximum mean response, read-out: MAX_MEAN): 8.74%; Emax ([2]; tcpl plot AEID3093, maximum median response, read-out: MAX_MED): 9.69%
CC(O)CO (centres unmarked) [1,2-Propylene glycol] | Negative | 5.484 | >200 | 0 | 3.45 | 5.48 | >200 | 12.9966 | 0 | 8.27 | 7.58 | 0 | 0.919 | 0.955 | 327552 | – | Non-Teratogen | Neg | 0.616 | 0.577 | quickPredict TI (µM) [4]: 327,552 µM; quickPredict CV (H9 embryonic stem cells; cell viability): 246664 µM; quickPredict CV (µM) (H9 embryonic stem cells; [9]): 246,664 µM; Development Toxicant Classification [5]: Negative

Reference: publication PMC9321663, “The DevTox Germ Layer Reporter Platform: An Assay Adaptation of the Human Pluripotent Stem Cell Test” (Toxics, 2022)
